Patent US11541028B2, “Peptide pharmaceuticals for treatment of NASH and other disorders” (Mederis Diabetes LLC, priority 2018, dated 2023)

Columns and labels:
human GLP-1 receptor = target: T1, human GLP-1 receptor (Homo sapiens, UniProt P43220); experiment: DiscoveRx LeadHunter cellular assay, cAMP stimulation, GLP-1 receptor in CHO cells; type: cell-based; details: human GLP-1 receptor in CHO cells (DiscoveRx); read-out: EC50 cAMP GLP-1 R
T1 construct: host or cells: CHO cells
Method: (§1) A further series of cellular assays was carried out with standard cellular assays (DiscoveRx, LeadHunter assays) using readout of cAMP stimulation or arrestin activation. Compounds were weighed precisely in an amount of about 1 mg and shipped to DiscoveRx for dilution and assay.

human glucagon receptor = target: T2, human glucagon receptor (Homo sapiens, UniProt P47871); experiment: DiscoveRx LeadHunter cellular assay, cAMP stimulation, glucagon receptor in CHO cells; type: cell-based
T2 construct: host or cells: CHO cells
T2 sequence (P47871 26-477): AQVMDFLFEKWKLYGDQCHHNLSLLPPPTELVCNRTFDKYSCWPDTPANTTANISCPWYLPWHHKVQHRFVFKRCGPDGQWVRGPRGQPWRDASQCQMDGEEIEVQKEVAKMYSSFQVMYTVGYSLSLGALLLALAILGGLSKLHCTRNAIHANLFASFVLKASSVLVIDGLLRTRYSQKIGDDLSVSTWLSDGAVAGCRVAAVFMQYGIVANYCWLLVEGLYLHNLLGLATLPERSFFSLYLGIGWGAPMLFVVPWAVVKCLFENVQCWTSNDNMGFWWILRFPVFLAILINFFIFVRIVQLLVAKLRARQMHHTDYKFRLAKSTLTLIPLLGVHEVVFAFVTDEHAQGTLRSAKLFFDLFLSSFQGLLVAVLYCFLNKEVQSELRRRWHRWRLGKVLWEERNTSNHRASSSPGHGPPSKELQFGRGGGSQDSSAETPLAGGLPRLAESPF
Method: as §1

T1 sequence (P43220 24-463): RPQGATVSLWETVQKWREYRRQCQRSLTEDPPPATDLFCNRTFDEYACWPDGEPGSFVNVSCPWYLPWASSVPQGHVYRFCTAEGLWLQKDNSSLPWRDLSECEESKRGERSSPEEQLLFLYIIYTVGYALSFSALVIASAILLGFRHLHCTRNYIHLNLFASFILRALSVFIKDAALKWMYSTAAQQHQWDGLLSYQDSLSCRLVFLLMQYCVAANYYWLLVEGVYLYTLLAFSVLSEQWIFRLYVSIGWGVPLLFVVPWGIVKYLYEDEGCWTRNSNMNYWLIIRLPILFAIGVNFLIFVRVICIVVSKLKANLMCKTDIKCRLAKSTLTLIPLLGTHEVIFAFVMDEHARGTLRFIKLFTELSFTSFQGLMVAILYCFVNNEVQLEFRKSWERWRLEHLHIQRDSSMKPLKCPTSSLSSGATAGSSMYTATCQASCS

Row | Structure (SMILES) | EC50 (human GLP-1 receptor) [pM] | EC50 (human glucagon receptor) [nM]
1 | CCCCCCCCCCCCO[C@@H]1O[C@H](C(=O)NCCCC[C@H](NC(=O)[C@@H](NC(=O)[C@H](Cc2ccccc2)NC(=O)[C@H](CCC(=O)O)NC(=O)[C@@H]2CCCCNC(=O)CC[C@H](NC(=O)[C@H](CC(=O)O)NC(=O)[C@H](CC(C)C)NC(=O)[C@H](Cc3ccc(O)cc3)NC(=O)[C@H](CCCCN)NC(=O)[C@H](CO)NC(=O)[C@H](Cc3ccc(O)cc3)NC(=O)[C@H](CC(=O)O)NC(=O)[C@H](CO)NC(=O)[C@@H](NC(=O)[C@H](Cc3ccccc3)NC(=O)[C@@H](NC(=O)CNC(=O)[C@H](CCC(N)=O)NC(=O)C(C)(C)NC(=O)[C@@H](N)Cc3c[nH]cn3)[C@@H](C)O)[C@@H](C)O)C(=O)N[C@@H](CCC(N)=O)C(=O)N[C@@H](C)C(=O)N[C@@H](C)C(=O)N2)[C@@H](C)CC)C(=O)N[C@@H](Cc2c[nH]c3ccccc23)C(=O)N[C@@H](CC(C)C)C(=O)N[C@@H](CC(C)C)C(=O)N[C@@H](CCC(N)=O)C(=O)N[C@H](C(=O)NCCOCCOCCOCCOCCC(=O)O)[C@@H](C)O)[C@@H](O)[C@H](O)[C@H]1O [EU-A1633] | 8 | 0.053
2 | CCCCCCCCCCO[C@@H]1O[C@H](C(=O)N[C@@H](CCC(=O)N[C@@H](CCC(=O)NCCCC[C@H](NC(=O)[C@@H](NC(=O)[C@H](Cc2ccccc2)NC(=O)[C@H](CCC(=O)O)NC(=O)[C@@H]2CCCCNC(=O)CC[C@H](NC(=O)[C@H](CC(=O)O)NC(=O)[C@H](CC(C)C)NC(=O)[C@H](Cc3ccc(O)cc3)NC(=O)[C@H](CCCCN)NC(=O)[C@H](CO)NC(=O)[C@H](Cc3ccc(O)cc3)NC(=O)[C@H](CC(=O)O)NC(=O)[C@H](CO)NC(=O)[C@@H](NC(=O)[C@H](Cc3ccccc3)NC(=O)[C@@H](NC(=O)CNC(=O)[C@H](CCC(N)=O)NC(=O)C(C)(C)NC(=O)[C@@H](N)Cc3c[nH]cn3)[C@@H](C)O)[C@@H](C)O)C(=O)N[C@@H](CCC(N)=O)C(=O)N[C@@H](C)C(=O)N[C@@H](C)C(=O)N2)[C@@H](C)CC)C(=O)N[C@@H](Cc2c[nH]c3ccccc23)C(=O)N[C@@H](CC(C)C)C(=O)N[C@@H](CC(C)C)C(=O)N[C@@H](CCC(N)=O)C(=O)N[C@H](C(N)=O)[C@@H](C)O)C(=O)O)C(=O)O)[C@@H](O)[C@H](O)[C@H]1O [EU-A1722] | 6 | 0.012
3 | CCCCCCCCCCCCCCO[C@@H]1O[C@H](CO[C@H]2O[C@H](C(=O)NCCCC[C@H](N)C(=O)NCCCC[C@H](NC(=O)[C@@H](NC(=O)[C@H](Cc3ccccc3)NC(=O)[C@H](CCC(=O)O)NC(=O)[C@@H]3CCCCNC(=O)CC[C@H](NC(=O)[C@H](CC(=O)O)NC(=O)[C@H](CC(C)C)NC(=O)[C@H](Cc4ccc(O)cc4)NC(=O)[C@H](CCCCN)NC(=O)[C@H](CO)NC(=O)[C@H](Cc4ccc(O)cc4)NC(=O)[C@H](CC(=O)O)NC(=O)[C@H](CO)NC(=O)[C@@H](NC(=O)[C@H](Cc4ccccc4)NC(=O)[C@@H](NC(=O)CNC(=O)[C@H](CCC(N)=O)NC(=O)C(C)(C)NC(=O)[C@@H](N)Cc4c[nH]cn4)[C@@H](C)O)[C@@H](C)O)C(=O)N[C@@H](CCC(N)=O)C(=O)N[C@@H](C)C(=O)N[C@@H](C)C(=O)N3)[C@@H](C)CC)C(=O)N[C@@H](Cc3c[nH]c4ccccc34)C(=O)N[C@@H](CC(C)C)C(=O)N[C@@H](CC(C)C)C(=O)N[C@@H](CCC(N)=O)C(=O)N[C@H](C(=O)O)[C@@H](C)O)[C@H](O)[C@H](O)[C@H]2O)[C@@H](O)[C@H](O)[C@H]1O [EU-A1612] | 11 | 0.059
